The record followed here is EP2002836B1, “Cyclocondensed azaindoles active as kinase inhibitors” (Nerviano Medical Sciences S.r.l., priority 2007, dated 2008).

Assay [1] has as its system S6 ribosomal protein phosphorylation in MCF7. The experiment in a line: Inhibition of AKT induced S6 ribosomal protein phosphorylation in MCF7 (immunofluorescence, ArrayScan). It counts as cell-based. The note with it: Homo sapiens, MCF-7 cells, 4 hour treatment at 37°C, anti-phospho-S6 (Ser 235/236), read-out: S6 phosphorylation (Ser235/236) in MCF7-cell IC50. How it is done:
MCF-7 cells (ATCC# HTB-22) were seeded in 96-well poly-lysine coated clear- and flat-bottomed black plates (Matrix Technologies Inc., Hudson, NH, USA), in E-MEM medium (MEM+ Earle's BSS + 2 mM glutamine + 0.1 mM non-essential amino acids) containing 10% of FCS at a density of 7000 cells/well, and incubated overnight at 37°C, 5% CO2, 100% relative humidity. After this incubation, cells were treated with increasing compound doses for 4 hour at 37°C. Afterwards, cells were fixed with PBS/3.7% paraformaldehyde for 15 min at room temperature, wash twice with 200 µl/well D-PBS and permeabilize with a D-PBS solution containing 0.1% Triton X-100 (Sigma-Aldrich, St. Louis, MO, USA) and 0.1 % powder Milk for 15 minutes (staining solution). […] Fluorescence images in the DAPI and Cy5™ channels were automatically acquired, stored and analysed using a Cellomics ArrayScan™ IV instrument (Cellomics, Pittsburgh, USA); the Cellomics Cytotoxicity Algorithm was used to quantify cytoplasmic fluorescence associated with phospho-S6 (Cy5™ signal parameter: "Mean Lyso Mass-pH") for each cell in 10 fields/well, and eventually expressed as a mean population value. […]

A further assay concerns the target AKT1 (Homo sapiens, UniProt P31749). The experiment in a line: Biochemical assay for inhibitors of AKT1 kinase activity (33P trans-phosphorylation, Dowex resin). Also on record: made in house. The note with it: 5 nM enzyme, 132 microM ATP, 30 microM peptide substrate; read-out: AKT1 IC50 (µM) Biochem assay. How it is done: The N-terminal GST fusion proteins used for the assays were prepared according to the methods described in Kumar, C. C. Biochem. Biophys. ACTA 2001, 1526, 257-268, and in Alessi, D. R.. Biochem. J. 1998 331, 299-308.
The inhibitory activity of putative kinase inhibitors and the potency of selected compounds were determined using a trans-phosphorylation assay.
A specific substrate was incubated with the kinase in appropriate buffer conditions in the presence of ATP traced with ^33P-γ-ATP (gamma phosphate-labeled, Redivue™ Code Number AH9968, 1000-3000Ci/mmole, Amersham Biosciences Piscataway, NJ, USA), optimal cofactors and test compound.
At the end of the phosphorylation reaction, more than 98% cold and radioactive ATP were captured by an excess of Dowex ion exchange resin. The resin was allowed to settle to the bottom of reaction wells by gravity. Supernatant, containing substrate peptide, was subsequently withdrawn and transferred into a counting plate, and radioactivity (corresponding to phosphate incorporated into peptide) was evaluated by β-counting.
Kinase buffer was composed of 50 mM TRIS pH 7.5 containing10 mM MgCl2, 1 mM DTT, 3 microM Na3VO4, and 0.2 mg/mL BSA. 3X KB is buffer of the same composition and pH as KB, but with three times the concentration of each component. iii.Assay conditions (final concentrations) for AKT1.
The kinase assay was run with a final enzyme concentration of 5 nM, in the presence of 132 microM ATP, 0.88 nM ^33P-γ-ATP and 30 microM substrate, a carboxy-terminally biotinylated peptide of the following sequence: ARKRERTYSFGHHA-biotin. The peptide was obtained in batches of >95% peptide purity from PRIMM labs Inc. (Boston MA, USA).
The "test" mixture of 15 microL consisting of: • 1) 5 µl/well of 3x Enzyme mix (done in Kinase Buffer 3X), • 2) 5 µl/well of 3x substrate and ATP mix (done in ddH2O), together with ^33P-γ-ATP, • 3) 5 µl/well of 3x test compounds (diluted into ddH2O - 3% DMSO).
For % inhibition studies, dilution plates at 1 mM, 10 microM and 100 microM were prepared in 100% DMSO, then diluted to 3X final desired concentration (30, 3 and 0.3 microM) in ddH2O, 3% DMSO. A Multimek 96 (Beckman Coulter, Inc. 4300 N. Harbor Boulevard, P.O. Box 3100 Fullerton, CA 92834-3100 USA) was used for compound pipetting into test plates.
For IC50 determination, starting solutions of 30 microM compound in 3% DMSO were derived from 1 mM/100% DMSO stock solutions. These 30 microM starting solutions were used for generation of a further 9 serial 1/3 dilutions in ddH20, 3% DMSO, so as to generate a 10-point dilution curve at 3X the final assay concentration. Serial dilution was conducted in 96-well plates using a Biomek 2000 (Beckman Coulter) system. Dilution curves of 7 compounds/plate were prepared, and each plate also included a 10-point dilution curve of Staurosporine, as well as several negative and positive control wells.
384-well plates, V bottom (test plates) are prepared with 5 µl of the compound dilution (3X) and then placed onto a PlateTrak 12 robotized station (Perkin Elmer; the robot has one 384-tips pipetting head for starting the assay plus one 96-tips head for dispensing the resin) together with one reservoir for the Enzyme mix (3X) and one for the ATP mix (3X).
At the start of the run, the robot aspirates 5 µl of ATP mix, makes an air gap inside the tips (3 µl) and aspirates 5 µl of AKT mix. The following dispensation into the plates allows the kinase reaction to start upon 3 cycles of mixing, done by the robot itself.
The robot incubates the plates for 60 minutes at room temperature, and then stops the reaction by pipetting 70 µl of dowex resin suspension into the reaction mix. Three cycles of mixing are done immediately after the addition of the resin.
Another mixing cycle is performed after all the plates are stopped, this time using normal tips: the plates are then allowed to rest for about one hour in order to maximize ATP capture. […]

Structures are written as SMILES.

Sequence of AKT1 (P31749 whole entry, the tested form may be a part): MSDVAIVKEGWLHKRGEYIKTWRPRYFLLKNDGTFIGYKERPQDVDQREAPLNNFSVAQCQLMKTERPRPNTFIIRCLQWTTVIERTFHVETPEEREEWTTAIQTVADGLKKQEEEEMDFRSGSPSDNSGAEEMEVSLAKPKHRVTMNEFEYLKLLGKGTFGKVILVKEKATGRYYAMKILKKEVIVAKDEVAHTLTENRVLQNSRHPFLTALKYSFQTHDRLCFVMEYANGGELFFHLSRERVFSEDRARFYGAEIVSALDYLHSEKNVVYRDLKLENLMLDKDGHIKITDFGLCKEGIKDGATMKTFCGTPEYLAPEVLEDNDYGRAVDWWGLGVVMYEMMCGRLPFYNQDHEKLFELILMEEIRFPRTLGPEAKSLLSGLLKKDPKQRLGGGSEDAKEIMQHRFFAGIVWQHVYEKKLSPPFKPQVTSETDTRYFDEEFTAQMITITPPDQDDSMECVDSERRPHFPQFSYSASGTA

`NC[C@H](Cc1ccccc1)NC(=O)C1=Cc2c[nH]c3nccc(c23)CC1` [Cpd. 1, N-[(1S)-2-amino-1-benzylethyl]-6,7-dihydro-2H-2,3-diazabenzo[cd]azulene-8-carboxamide]: the IC50 in assay [1] came out at 13500 nM; at AKT1, 0.05 µM. Regarding `CC(=O)N1CC(C(=O)N[C@H](CN)Cc2ccccc2)=Cc2c[nH]c3nccc1c23` [Cpd. 3, 6-acetyl-N-[(1S)-2-amino-1-benzylethyl]-6,7-dihydro-2H-2,3,6-triazabenzo[cd]azulene-8-carboxamide], the IC50 at AKT1 was 0.184 µM. Take `O=C(N[C@H](CN1CCCC1)c1ccccc1)C1=Cc2c[nH]c3nccc(c23)CC1` [Cpd. 6, N-[(1S)-1-phenyl-2-pyrrolidin-1-ylethyl]-6,7-dihydro-2H-2,3-diazabenzo[cd]azulene-8-carboxamide]: the IC50 was 11500 nM in assay [1] and 0.121 µM at AKT1. Consider `NC[C@H](Cc1ccccc1)NC(=O)C1=Cc2c[nH]c3nccc(c23)NC1` [compound 2, N-[(1S)-2-amino-1-benzylethyl]-6,7-dihydro-2H-2,3,6-triazabenzo[cd]azulene-8-carboxamide], for which the IC50 at AKT1 was 0.017 µM.
